One assay relates to MOOVA (Monochoria). Nature of the assay: Postemergence weed control under flooded paddy conditions. The format is in vivo, Monochoria vaginalis. As to conditions: postemergence weeds. The procedure, abridged: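 Injury ratings (0–9 scale covering stand, vigor, malformation, size, chlorosis and overall appearance versus control) were made three to four weeks after treatment. Test material, about 0.0313 to 0.500 kg/ha a.i. in 50/50 v/v aqueous/acetone, was added to flood water 1.5 to 3 cm deep over 3 to 5 cm weeds and 1.5 to 2.5 leaf rice.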

The subject of the next assay is CYPSE (Flatsedge). Nature of the assay: Preemergence weed control under flooded paddy conditions. It is filed as in vivo, Cyperus serotinus. As to conditions: rated 3-4 weeks after treatment. A digest of the protocol: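 Silt loam, seeds in top 0.5 cm; flood held 1.5-3 cm; test cpd as acetone/water 50/50 into flood water, ~0.0313-0.500 kg/ha a.i.; greenhouse 3-4 wk; visual 0-9 score vs control.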

The next assay deals with ECHCG (Barnyardgrass). Nature of the assay: Postemergence herbicidal evaluation. The format is in vivo, Echinochloa crus-galli. As to conditions: postemergence. The procedure, abridged: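 Two-week seedlings sprayed postemergence at 40 psi; formulation: 1:1 acetone/water, 0.5% TWEEN 20; application ≈0.0156–0.500 kg/ha. Greenhouse grow-out, then 0–9 visual scoring at 4–5 weeks.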

Assay [1] has as its system ECHORC (Watergrass (Calif.)). Nature of the assay: Preemergence weed control under flooded paddy conditions. As to conditions: rated 3-4 weeks after treatment. The format is in vivo, Echinochloa oryzoides. A digest of the protocol:
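Visual injury scored 0-9 against control three to four weeks post-treatment, greenhouse-grown. Application: acetone/water (50/50) solutions dosed directly into flood water (1.5-3 cm over silt loam, planted top 0.5 cm), roughly 0.0313 to 0.500 kg/ha active ingredient.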

Assay [2] has as its system CHEAL (Lambsquarters, Common). Nature of the assay: Preemergence herbicidal evaluation. The format is in vivo, Chenopodium album. As to conditions: rated 4-5 weeks after treatment. A digest of the protocol:
(§1)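 Herbicidal effect scored visually, 0-9, at 4 to 5 weeks against a control; compound applied preemergence by aqueous acetone spray to seeded soil at about 0.0156 to 0.500 kg/ha.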

Another assay has as its system ORYSAT (Rice, Tebonnet). Nature of the assay: Preemergence herbicidal evaluation. The format is in vivo, Oryza sativa, (L.) Tebonnet. As to conditions: rated 4-5 weeks after treatment. A digest of the protocol: as §1
[3] abbreviates: rate 0.0313 kg/ha, 3-4 weeks after treatment.
Setting [4] is: rate 0.0625 kg/ha, 3-4 weeks after treatment.
The mark [5] stands for this setting: rate 0.1250 kg/ha, 3-4 weeks after treatment.
The mark [6] stands for this setting: rate 0.2500 kg/ha, 3-4 weeks after treatment.

We go through 5 molecules from patent US20020137929A1, “1 - (3-heterocyclylphenyl) isothiourea, -isourea, -guanidine and -amidine herbicidal agents” (Intellectual Property Department, BASF Aktiengesellschaft, priority 1998, published 2002).

As to `C=CCN1C(=O)C(CC(=O)NS(=O)(=O)c2ccccc2)SC1=Nc1cc(-n2c(=O)cc(C(F)(F)F)n(C)c2=O)c(F)cc1Cl` (stereo not drawn) [Compound 101, 3-Allyl-2-{{2-chloro-5-[3,6-dihydro-3-methyl-2,6-dioxo-4-(trifluoromethyl)-1(2H)-pyrimidinyl]-4-fluorophenyl}imino}-4-oxo-N-(phenylsulfonyl)-5-thiazolidineacetamide], the “Herbicidal rating MOOVA” value in the assay with MOOVA (Monochoria) (Rate 0.0313 kg/ha, rated 3 to 4 weeks after treatment) was 5.0; in the assay on MOOVA (Monochoria) (Rate 0.0625 kg/ha, rated 3 to 4 weeks after treatment), 5.0; in the assay with MOOVA (Monochoria) (Rate 0.1250 kg/ha, rated 3 to 4 weeks after treatment) it was 7.0; with MOOVA (Monochoria) (Rate 0.2500 kg/ha, rated 3 to 4 weeks after treatment), 9.0; with MOOVA (Monochoria) (Rate 0.5000 kg/ha, rated 3 to 4 weeks after treatment), 9.0. Besides, the “CYPSE herbicidal effect rating” value with CYPSE (Flatsedge) (0.0313 kg/ha), with CYPSE (Flatsedge) (0.0625 kg/ha), in the assay with CYPSE (Flatsedge) (0.1250 kg/ha), with CYPSE (Flatsedge) (0.2500 kg/ha) and with CYPSE (Flatsedge) (0.5000 kg/ha) was 0.0 each time. For the same molecule, the “Herbicidal rating ECHCG” value came to 1.0 in the assay on ECHCG (Barnyardgrass) (rate 0.0156 kg/ha), 2.0 with ECHCG (Barnyardgrass) (rate 0.0313 kg/ha), 3.0 in the assay with ECHCG (Barnyardgrass) (rate 0.0625 kg/ha) and 5.0 in the assay with ECHCG (Barnyardgrass) (rate 0.1250 kg/ha). For the same molecule, the “ECHORC herbicidal effect rating” value in assay [1] (0.0313 kg/ha), in assay [1] (0.0625 kg/ha), in assay [1] (0.1250 kg/ha), in assay [1] (0.2500 kg/ha) and in assay [1] (0.5000 kg/ha) was 0.0 throughout.

Regarding `CCOC(=O)CN1C(=O)CN(C)C1=Nc1cc(-n2c(=O)cc(C(F)(F)F)n(C)c2=O)c(F)cc1Cl` [Compound 25, Ethyl 2-{{2-chloro-5-[3,6-dihydro-3-methyl-2,6-dioxo-4-(trifluoromethyl)-1(2H)-pyrimidinyl]-4-fluorophenyl}imino}-3-methyl-5-oxo-1-imidazolidineacetate], the “Herbicidal rating MOOVA” value in the assay with MOOVA (Monochoria) (setting [3]), in the assay with MOOVA (Monochoria) (setting [4]), with MOOVA (Monochoria) (setting [5]) and in the assay on MOOVA (Monochoria) (setting [6]) was 9.0 each time. For the same molecule, the ECHCG herbicidal rating in the assay with ECHCG (Barnyardgrass) (rate 0.0156 kg/ha), in the assay on ECHCG (Barnyardgrass) (rate 0.0313 kg/ha) and in the assay with ECHCG (Barnyardgrass) (rate 0.0625 kg/ha) was 0.0 in each case. Also, the figures for the “Preemergence herbicidal rating CHEAL” value in assay [2] (rate 0.0156 kg/ha) and in assay [2] (rate 0.0313 kg/ha) were 7.0 and 9.0, respectively. Besides, the “CHEAL preemergence herbicidal rating” value in assay [2] (rate 0.0625 kg/ha), in assay [2] (rate 0.1250 kg/ha) and in assay [2] (rate 0.2500 kg/ha) was 9.0 in each case. Moreover, the “Herbicidal rating ECHORC” value in assay [1] (0.0313 kg/ha) is reported as 4.0; in assay [1] (0.0625 kg/ha), 6.0; in assay [1] (0.1250 kg/ha) it was 7.0; in assay [1] (0.2500 kg/ha), 9.0. The “Preemergence herbicidal rating ORYSAT” value with ORYSAT (Rice, Tebonnet) (rate 0.0156 kg/ha) came to 0.0; with ORYSAT (Rice, Tebonnet) (rate 0.0313 kg/ha), 0.0. Further, the “ORYSAT preemergence herbicidal rating” value is 0.0 in the assay with ORYSAT (Rice, Tebonnet) (rate 0.0625 kg/ha); 2.0 in the assay on ORYSAT (Rice, Tebonnet) (rate 0.1250 kg/ha); 5.0 with ORYSAT (Rice, Tebonnet) (rate 0.2500 kg/ha).

In the case of `Cn1c(C(F)(F)F)cc(=O)n(-c2cc(N=C3SCC(=O)N3Cc3ccccc3)c(Cl)cc2F)c1=O` [Compound 26], the “Herbicidal rating MOOVA” value in the assay on MOOVA (Monochoria) (setting [3]), in the assay with MOOVA (Monochoria) (setting [4]), with MOOVA (Monochoria) (setting [5]) and in the assay with MOOVA (Monochoria) (setting [6]) was 9.0 throughout. Also, the ECHCG herbicidal rating in the assay on ECHCG (Barnyardgrass) (rate 0.0156 kg/ha), in the assay on ECHCG (Barnyardgrass) (rate 0.0313 kg/ha) and in the assay on ECHCG (Barnyardgrass) (rate 0.0625 kg/ha) was 0.0 throughout. Moreover, the “Preemergence herbicidal rating CHEAL” value in assay [2] (rate 0.0156 kg/ha) is 3.0; in assay [2] (rate 0.0313 kg/ha) it was 9.0; in assay [2] (rate 0.0625 kg/ha) it was 9.0; in assay [2] (rate 0.1250 kg/ha), 9.0; in assay [2] (rate 0.2500 kg/ha), 9.0. The “Herbicidal rating ECHORC” value in assay [1] (0.0313 kg/ha) amounted to 7.0; in assay [1] (0.0625 kg/ha), 9.0; in assay [1] (0.1250 kg/ha) it was 9.0; in assay [1] (0.2500 kg/ha) it was 9.0. Moreover, the “Preemergence herbicidal rating ORYSAT” value in the assay on ORYSAT (Rice, Tebonnet) (rate 0.0156 kg/ha) is 0.0; with ORYSAT (Rice, Tebonnet) (rate 0.0313 kg/ha) it was 0.0; in the assay on ORYSAT (Rice, Tebonnet) (rate 0.0625 kg/ha), 0.0; with ORYSAT (Rice, Tebonnet) (rate 0.1250 kg/ha), 0.0; in the assay with ORYSAT (Rice, Tebonnet) (rate 0.2500 kg/ha), 0.0.

Regarding `C[C@@H](C(=O)OC(C)(C)C)N1C(=O)CSC1=Nc1cc(-n2c(=O)cc(C(F)(F)F)n(C)c2=O)c(F)cc1Cl` [Compound 75, tert-Butyl 2-{{2-chloro-5-[3,6-dihydro-3-methyl-2,6-dioxo-4-(trifluoromethyl)-1(2H)-pyrimidinyl]-4-fluorophenyl}imino}-α-methyl-4-oxo-3-thiazolidineacetate, L-], the “CYPSE herbicidal effect rating” value is 2.0 in the assay with CYPSE (Flatsedge) (0.0313 kg/ha), 3.0 in the assay with CYPSE (Flatsedge) (0.0625 kg/ha), 3.0 in the assay on CYPSE (Flatsedge) (0.1250 kg/ha) and 3.0 with CYPSE (Flatsedge) (0.2500 kg/ha). Moreover, the ECHCG herbicidal rating in the assay with ECHCG (Barnyardgrass) (rate 0.0158 kg/ha), with ECHCG (Barnyardgrass) (rate 0.0315 kg/ha) and in the assay with ECHCG (Barnyardgrass) (rate 0.0630 kg/ha) was 1.0 in each case. Besides, the “Preemergence herbicidal rating CHEAL” value in assay [2] (rate 0.0156 kg/ha), in assay [2] (rate 0.0313 kg/ha), in assay [2] (rate 0.0625 kg/ha), in assay [2] (rate 0.1250 kg/ha) and in assay [2] (rate 0.2500 kg/ha) was 9.0 throughout. For the same molecule, the “ECHORC herbicidal effect rating” value in assay [1] (0.0313 kg/ha) came to 6.0; in assay [1] (0.0625 kg/ha) it was 6.0; in assay [1] (0.1250 kg/ha), 9.0; in assay [1] (0.2500 kg/ha), 9.0. Further, the “Preemergence herbicidal rating ORYSAT” value with ORYSAT (Rice, Tebonnet) (rate 0.0156 kg/ha) is listed as 0.0; in the assay on ORYSAT (Rice, Tebonnet) (rate 0.0313 kg/ha) it was 0.0; with ORYSAT (Rice, Tebonnet) (rate 0.0625 kg/ha) it was 0.0; in the assay on ORYSAT (Rice, Tebonnet) (rate 0.1250 kg/ha) it was 1.0; in the assay on ORYSAT (Rice, Tebonnet) (rate 0.2500 kg/ha) it was 2.0.

Consider `CC(C)OC(=O)CN1C(=O)CSC1=Nc1cc(-n2c(=O)cc(C(F)(F)F)n(C)c2=O)c(F)cc1Cl` [Compound 110], for which the “CYPSE herbicidal effect rating” value in the assay with CYPSE (Flatsedge) (0.0313 kg/ha), with CYPSE (Flatsedge) (0.0625 kg/ha), with CYPSE (Flatsedge) (0.1250 kg/ha) and in the assay on CYPSE (Flatsedge) (0.2500 kg/ha) was 0.0 each time. Also, the “Herbicidal rating ECHCG” value was determined as 1.0 with ECHCG (Barnyardgrass) (rate 0.0158 kg/ha), 5.0 with ECHCG (Barnyardgrass) (rate 0.0315 kg/ha) and 4.0 with ECHCG (Barnyardgrass) (rate 0.0630 kg/ha). In addition, the “Preemergence herbicidal rating CHEAL” value is 8.0 in assay [2] (rate 0.0156 kg/ha); 9.0 in assay [2] (rate 0.0313 kg/ha); 9.0 in assay [2] (rate 0.0625 kg/ha); 9.0 in assay [2] (rate 0.1250 kg/ha); 9.0 in assay [2] (rate 0.2500 kg/ha); 9.0 in assay [2] (rate 0.5000 kg/ha). Besides, the “ECHORC herbicidal effect rating” value in assay [1] (0.0313 kg/ha) is 7.0; in assay [1] (0.0625 kg/ha) it was 7.0; in assay [1] (0.1250 kg/ha), 7.0; in assay [1] (0.2500 kg/ha) it was 9.0. The “Preemergence herbicidal rating ORYSAT” value with ORYSAT (Rice, Tebonnet) (rate 0.0156 kg/ha) was found to be 0.0; with ORYSAT (Rice, Tebonnet) (rate 0.0313 kg/ha), 0.5; in the assay on ORYSAT (Rice, Tebonnet) (rate 0.0625 kg/ha) it was 0.5; with ORYSAT (Rice, Tebonnet) (rate 0.1250 kg/ha), 1.5; in the assay on ORYSAT (Rice, Tebonnet) (rate 0.2500 kg/ha), 5.0; with ORYSAT (Rice, Tebonnet) (rate 0.5000 kg/ha), 3.0.
